According to patent US20060079566A1, “PDK-1/Akt signaling inhibitors” (priority 2003, published 2006):

How the values were obtained:
[1] = system: HOP-92; assay: NCI DTP screen (SRB), Non-Small Cell Lung Cancer; assay type: cell-based; conditions: Homo sapiens, HOP-92, read-out: LC50
Method: (§5) After 24 h, two plates of each cell line are fixed in situ with TCA, to represent a measurement of the cell population for each cell line at the time of drug addition (Tz). Experimental drugs are solubilized in dimethyl sulfoxide at 400-fold the desired final maximum test concentration and stored frozen prior to use. […]
(§6) Following drug addition, the plates are incubated for an additional 48 h at 37° C., 5% CO2, 95% air, and 100% relative humidity. […] Bound stain is subsequently solubilized with 10 mM trizma base, and the absorbance is read on an automated plate reader at a wavelength of 515 nm. […] Using the seven absorbance measurements [time zero, (Tz), control growth, (C), and test growth in the presence of drug at the five concentration levels (Ti)], the percentage growth is calculated at each of the drug concentrations levels. Percentage growth inhibition is calculated as: [(Ti−Tz)/(C−Tz)]×100 for concentrations for which Ti>/=Tz [(Ti−Tz)/Tz]×100 for concentrations for which Ti<Tz […]

[2] = system: NCI/ADR-RES; assay: NCI DTP screen (SRB), Breast Cancer; assay type: cell-based; conditions: Homo sapiens
Method: (§1) Screening of compounds 70 and 71 against several cancer cell lines The human tumor cell lines of the cancer screening panel are grown in RPMI 1640 medium containing 5% fetal bovine serum and 2 mM L-glutamine. For a typical screening experiment, cells are inoculated into 96 well microtiter plates in 100 μL at plating densities ranging from 5,000 to 40,000 cells/well depending on the doubling time of individual cell lines. After cell inoculation, the microtiter plates are incubated at 37° C., 5% CO2, 95% air and 100% relative humidity for 24 h prior to addition of experimental drugs.
(§2) After 24 h, two plates of each cell line are fixed in situ with TCA, to represent a measurement of the cell population for each cell line at the time of drug addition (Tz). Experimental drugs are solubilized in dimethyl sulfoxide at 400-fold the desired final maximum test concentration and stored frozen prior to use. At the time of drug addition, an aliquot of frozen concentrate is thawed and diluted to twice the desired final maximum test concentration with complete medium containing 50 μg/ml gentamicin. Additional four, 10-fold or ½ log serial dilutions are made to provide a total of five drug concentrations plus control. Aliquots of 100 μl of these different drug dilutions are added to the appropriate microtiter wells already containing 100 μl of medium, resulting in the required final drug concentrations.
(§3) Following drug addition, the plates are incubated for an additional 48 h at 37° C., 5% CO2, 95% air, and 100% relative humidity. For adherent cells, the assay is terminated by the addition of cold TCA. Cells are fixed in situ by the gentle addition of 50 μl of cold 50% (w/v) TCA (final concentration, 10% TCA) and incubated for 60 minutes at 4° C. The supernatant is discarded, and the plates are washed five times with tap water and air dried. Sulforhodamine B (SRB) solution (100 μl) at 0.4% (w/v) in 1% acetic acid is added to each well, and plates are incubated for 10 minutes at room temperature. After staining, unbound dye is removed by washing five times with 1% acetic acid and the plates are air dried. Bound stain is subsequently solubilized with 10 mM trizma base, and the absorbance is read on an automated plate reader at a wavelength of 515 nm. For suspension cells, the methodology is the same except that the assay is terminated by fixing settled cells at the bottom of the wells by gently adding 50 μl of 80% TCA (final concentration, 16% TCA). Using the seven absorbance measurements [time zero, (Tz), control growth, (C), and test growth in the presence of drug at the five concentration levels (Ti)], the percentage growth is calculated at each of the drug concentrations levels. Percentage growth inhibition is calculated as: [(Ti−Tz)/(C−Tz)]×100 for concentrations for which Ti>/=Tz [(Ti−Tz)/Tz]×100 for concentrations for which Ti<Tz
(§4) Three dose response parameters are calculated for each experimental agent. […] The drug concentration resulting in total growth inhibition (TGI) is calculated from Ti=Tz. […] Values are calculated for each of these three parameters if the level of activity is reached; however, if the effect is not reached or is exceeded, the value for that parameter is expressed as greater or less than the maximum or minimum concentration tested.

[3] = system: MDA-MB-231/ATCC; assay: NCI DTP screen (SRB), Breast Cancer; assay type: cell-based
Method: as §1, §2, §3, §4

[4] = system: NCI-H522; assay: NCI DTP screen (SRB), Non-Small Cell Lung Cancer; assay type: cell-based, human
Method: as §1, with “drugs. […]” for “drugs.”
Following drug addition, the plates are incubated for an additional 48 h at 37° C., 5% CO2, 95% air, and 100% relative humidity. […] Bound stain is subsequently solubilized with 10 mM trizma base, and the absorbance is read on an automated plate reader at a wavelength of 515 nm. […] Using the seven absorbance measurements [time zero, (Tz), control growth, (C), and test growth in the presence of drug at the five concentration levels (Ti)], the percentage growth is calculated at each of the drug concentrations levels. Percentage growth inhibition is calculated as: [(Ti−Tz)/(C−Tz)]×100 for concentrations for which Ti>/=Tz [(Ti−Tz)/Tz]×100 for concentrations for which Ti<Tz
Three dose response parameters are calculated for each experimental agent. […]

[5] = system: MALNE-3M; assay: NCI DTP screen (SRB), Melanoma; assay type: cell-based
[6] = system: OVCAR-8; assay: NCI DTP screen (SRB), Ovarian Cancer; assay type: cell-based; conditions: Homo sapiens
Method: as §1, §2, §3, §4

[7] = system: IGROV1; assay: NCI DTP screen (SRB), Ovarian Cancer; assay type: cell-based; conditions: Homo sapiens
Method: as §1, §2, §3, §4

[8] = system: OVCAR-4; assay: NCI DTP screen (SRB), Ovarian Cancer; assay type: cell-based; conditions: Homo sapiens
Method: as §1, §2, §3, §4

[9] = system: OVCAR-5; assay: NCI DTP screen (SRB), Ovarian Cancer; assay type: cell-based; conditions: Homo sapiens
Method: as §1, §2, §3, §4

[10] = system: SK-OV-3; assay: NCI DTP screen (SRB), Ovarian Cancer; assay type: cell-based; conditions: Homo sapiens
Method: as §1, §2, §3, §4

[11] = system: OVCAR-3; assay: NCI DTP screen (SRB), Ovarian Cancer; assay type: cell-based
Method: as §1, §2, §3, §4

[12] = molecular target: T1, recombinant PDK-1 (Homo sapiens, UniProt O15530); assay: PDK-1 kinase activity (Upstate kit, SGK-coupled, cell-free); assay type: biochemical
T1 construct: purchased Upstate (Lake Placid, N.Y.)
T1 sequence (O15530 1-556): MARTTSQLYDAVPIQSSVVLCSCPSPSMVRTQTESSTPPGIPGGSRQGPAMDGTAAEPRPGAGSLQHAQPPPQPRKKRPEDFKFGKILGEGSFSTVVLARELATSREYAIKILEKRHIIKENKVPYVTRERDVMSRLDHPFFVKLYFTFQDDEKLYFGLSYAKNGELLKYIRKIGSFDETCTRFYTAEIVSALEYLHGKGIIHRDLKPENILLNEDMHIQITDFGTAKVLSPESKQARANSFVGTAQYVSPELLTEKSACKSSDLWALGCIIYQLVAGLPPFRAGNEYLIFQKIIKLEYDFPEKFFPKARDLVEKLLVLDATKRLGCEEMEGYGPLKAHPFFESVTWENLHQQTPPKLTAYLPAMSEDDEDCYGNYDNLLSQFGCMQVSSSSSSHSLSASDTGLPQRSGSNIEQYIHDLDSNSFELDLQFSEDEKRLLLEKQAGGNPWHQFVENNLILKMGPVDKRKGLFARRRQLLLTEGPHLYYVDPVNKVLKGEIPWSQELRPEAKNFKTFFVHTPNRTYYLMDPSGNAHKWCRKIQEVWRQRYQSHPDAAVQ
Method: PDK-1 kinase activity This in vitro assay was performed using a PDK-1 kinase assay kit (Upstate, Lake Placid, N.Y.) according to the vendor's instructions. This cell-free assay is based on the ability of recombinant PDK-1, in the presence of DMSO vehicle or the test agent, to activate its downstream kinase serum- and glucocorticoid-regulated kinase (SGK.) which, in turn, phosphorylates the Akt/SGK-specific peptide substrate RPRAATF with [γ-^32]-ATP. […] The reported values represent the means of two independent determinations.

[13] = system: HT29; assay: NCI DTP screen (SRB), Colon Cancer; assay type: cell-based; conditions: Homo sapiens, HT-29
Method: as §5, §6

[14] = system: COLO 205; assay: NCI DTP screen (SRB), Colon Cancer; assay type: cell-based; conditions: Homo sapiens
Method: as §1, §2, §3, §4

[15] = system: HCT-15; assay: NCI DTP screen (SRB), Colon Cancer; assay type: cell-based; conditions: Homo sapiens
Method: as §5, §6

[16] = MALNE-3M, Log10 Concentration −5.0

How did the CC50 [1] turn out when `NCC(=O)Nc1ccc(-n2nc(C(F)(F)F)cc2-c2ccc3c(ccc4ccccc43)c2)cc1` [Compound 70, 2-Amino-N-{4-[5-(2-phenanthrenyl)-3-(trifluoromethyl)-1H-pyrazol-1-yl]-phenyl}-acetamide] was run?
Its CC50 is 5870 nM.

What about the GI50 [2] of the same compound?
The GI50 was 954 nM.

What about the CC50 ([2]; read-out: LC50) of the same compound?
The CC50 was 8280 nM.

What about the CC50 ([3]; Homo sapiens, MDA-MB-231, read-out: LC50) of the same compound?
The CC50 was 6670 nM.

What about the GI50 ([3]; Homo sapiens, MDA-MB-231/ATCC) of the same compound?
Its GI50 is 1150 nM.

What about the “Mean Optical Densities” value ([3]; MDA-MB-231/ATCC, Log10 Concentration −8.0) of the same compound?
The value was 1.988.

What about the GI50 ([4]; Homo sapiens) of the same compound?
Its GI50 is 1950 nM.

What about the “Mean Optical Densities” value ([4]; Log10 Concentration −4.0) of the same compound?
The value was 0.486.

What about the CC50 ([5]; Homo sapiens, read-out: LC50) of the same compound?
Its CC50 is 7730 nM.

What about the “Mean Optical Densities” value [5, 16] of the same compound?
Its value is 0.218.

And the “Percent Growth” value [5, 16]?
The value was −67%.

And the “Percent Growth” value ([5]; MALNE-3M, Log10 Concentration −6.0)?
The value was 87%.

What about the GI50 ([6]; OVCAR-8) of the same compound?
The GI50 was 1020 nM.

What about the CC50 ([6]; OVCAR-8, read-out: LC50) of the same compound?
The CC50 was > 100000 nM.

And the CC50 ([7]; IGROV-1, read-out: LC50)?
The CC50 was > 100000 nM.

What about the GI50 ([7]; IGROV-1, IGROV1) of the same compound?
The GI50 was 1560 nM.

What about the GI50 ([8]; OVCAR-4) of the same compound?
The GI50 was 1780 nM.

And the CC50 ([8]; OVCAR-4, read-out: LC50)?
Its CC50 is 6550 nM.

And the GI50 ([9]; OVCAR-5)?
Its GI50 is 1710 nM.

What about the CC50 ([9]; OVCAR-5, read-out: LC50) of the same compound?
Its CC50 is 6450 nM.

What about the GI50 [10] of the same compound?
Its GI50 is 1370 nM.

And the GI50 ([11]; Homo sapiens)?
Its GI50 is 1510 nM.

What about the “Mean Optical Densities” value ([11]; Log10 Concentration −8.0) of the same compound?
Its value is 1.879.

And the IC50 ([12]; inhibiting recombinant PDK-1 kinase activity, read-out: IC50 PDK-1)?
Its IC50 is 5000 nM.

What about the “increase in PDK-1 inhibition potency over compound 59” value ([12]; ratio of IC50 values) of the same compound?
The value was “two-”.

What about the GI50 [13] of the same compound?
The GI50 was 858 nM.

What about the GI50 [14] of the same compound?
The GI50 was 1190 nM.

What about the GI50 ([15]; HCT-15) of the same compound?
The GI50 was 365 nM.

And the CC50 ([15]; HCT-15, read-out: LC50)?
Its CC50 is > 100000 nM.
